Test results published in US9487489B2, “Halogen-substituted pyrazole derivatives as pest-control agents” (BAYER CROPSCIENCE AKTIENGESELLSCHAFT, priority 2013, dated 2016).
Values joined by “and” are separate entries in the source; they are usually repeats but may differ in a detail not shown here. Equal values may be shown once.

How the values were obtained:
[1] = tested on: adult cat fleas (Ctenocephalides felis); test: Ctenocephalides felis oral test (CTECFE); format: in vivo; conditions: application rate 100 ppm in citrated cattle blood; after 2 days
Outline: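 About 20 unfed adult cat fleas fed through parafilm membrane on citrated cattle blood containing compound (DMSO stock diluted in blood to test concentration). Kill % scored after 2 days (100% = all fleas dead).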

[2] = tested on: adult houseflies (Musca domestica); test: Musca domestica test (MUSCDO); format: in vivo; conditions: application rate 100 ppm; after 2 days
Outline: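 Compound dissolved in DMSO and diluted with water to the test concentration, applied with sugar solution on a sponge; 10 adult houseflies per vessel. Mortality scored after 2 days as % kill (100% all dead, 0% none).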

[3] = tested on: greenhouse red spider mite (Tetranychus urticae); test: Tetranychus urticae spray test, OP-resistant (TETRUR); format: in vivo; conditions: bean leaf discs, after 6 days
Outline: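 Bean leaf discs carrying all stages of OP-resistant Tetranychus urticae were sprayed with compound formulated in acetone/dimethylformamide and diluted in water with 1000 ppm alkylaryl polyglycol ether emulsifier. Mortality (% efficacy, 100% = all mites killed) scored after 6 days.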

[4] = tested on: L1 larvae of the Australian sheep blowfly (Lucilia cuprina); test: Lucilia cuprina test (LUCICU); format: in vivo; conditions: application rate 100 ppm; after 2 days
Outline: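 About 20 L1 larvae placed in a vessel with minced horsemeat plus compound (DMSO concentrate diluted with water to the desired concentration). Kill in % scored after 2 days, 100% meaning all larvae dead.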

[5] = tested on: larvae of the mustard beetle (Phaedon cochleariae); test: Phaedon cochleariae spray test (PHAECO); format: in vivo; conditions: Chinese cabbage leaf discs, after 7 days
Outline: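 Compound dissolved in acetone/dimethylformamide with alkylaryl polyglycol ether emulsifier, made up in water containing 1000 ppm emulsifier, then diluted to test concentrations and sprayed against mustard beetle larvae. Efficacy (% larvae killed) scored after 7 days.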

[6] = tested on: bont tick nymphs (Amblyomma hebraeum); conditions: after 48 h
[7] = logP determination by HPLC on a reversed-phase column (C18), EEC Directive 79/831 Annex V.A8; format: physicochemical; conditions: HPLC on reversed-phase column (C18), acetonitrile/water with formic acid, EEC Directive 79/831 Annex V.A8
Outline: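 Retention on a C18 reversed-phase column (Zorbax Eclipse Plus, 1.8 micron) was used, eluting with acetonitrile/water, each containing formic acid. The gradient ran from 10% to 95% acetonitrile over 4.25 min, then held 1.25 min, at 55° C and 2.0 ml/min, with MS detection.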

[8] = tested on: caterpillars of the armyworm (Spodoptera frugiperda); test: Spodoptera frugiperda spray test (SPODFR); format: in vivo; conditions: maize leaf discs, after 7 days
Outline: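 Maize leaf discs sprayed with compound in acetone/DMF with alkylaryl polyglycol ether emulsifier (1000 ppm) in water, dried, then infested with armyworm caterpillars. Mortality (%) scored after 7 days; 100% = all caterpillars killed, 0% = none killed.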

[9] = tested on: engorged adult female cattle ticks (Boophilus microplus); test: Boophilus microplus injection test (BOOPMI Inj); format: in vivo; conditions: application rate 20 μg/animal; injection into abdomen; assessed after 7 days
Outline: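 DMSO solution of compound (1 μl) injected into the abdomen of 5 engorged adult female ticks, which are then held in a climate-controlled room. After 7 days, efficacy is scored from laying of fertile eggs, with unclear eggs kept until larval hatch (~42 days); 100% means no fertile eggs, 0% all fertile.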

[10] = tested on: cattle ticks (Boophilus microplus) Parkhurst strain, SP-resistant; test: Boophilus microplus dip test (BOOPMI Dip); format: in vivo; conditions: application rate 100 ppm, assessed after 7 days
Procedure: B. Boophilus microplus-dip Test (BOOPMI Dip)
Test animals: cattle ticks (Boophilus microplus) Parkhurst strain, SP-resistant
Solvent: dimethyl sulphoxide
10 mg of active compound are dissolved in 0.5 ml of dimethyl sulphoxide. For the purpose of preparing a suitable formulation, the active compound solution is diluted with water to the concentration desired in each case.
This active compound preparation is pipetted into tubes. 8-10 adult engorged female cattle ticks (Boophilus microplus) are transferred into a further tube with holes. The tube is immersed into the active compound formulation, and all ticks are completely wetted. After the liquid has run out, the ticks are transferred on filter discs into plastic dishes and stored in a climate-controlled room.
The activity is assessed after 7 days by laying of fertile eggs. Eggs whose fertility is not visible from the outside are stored in a climate-controlled cabinet until the larvae hatch after about 42 days. An efficacy of 100% means that none of the ticks has laid any fertile eggs; 0% means that all eggs are fertile.

[11] = tested on: adult dog ticks (Rhipicephalus sanguineus); test: Rhipicephalus sanguineus in vitro contact test with adult brown dog ticks (T2); conditions: after 48 h
Outline: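 Acetone solutions coated onto test tube walls and floor, giving 5 μg/cm^2 at 900 ppm. Five to ten adult ticks held per tube in the dark at room temperature for 48 h, then heated at 45-50° C for up to 5 min; efficacy is the percentage of dead or moribund ticks unable to climb away.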

[12] = tested on: green peach aphid (Myzus persicae); test: Myzus persicae spray test (MYZUPE); format: in vivo; conditions: Chinese cabbage leaf discs, after 6 days
Outline: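 Chinese cabbage leaf discs infested with all aphid stages sprayed with compound in acetone/DMF with alkylaryl polyglycol ether emulsifier in water. Efficacy (% aphids killed; 100% all dead, 0% none) scored after 6 days.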

[13] = tested on: adult cat fleas (Ctenocephalides felis); test: Ctenocephalides felis in vitro contact test with adult cat fleas (T1); conditions: after 48 h
Outline: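 Test compound was dissolved in acetone p.a. (9 mg per 1 ml) and diluted as needed. 250 μl was spread evenly over the inner walls and floor of a 25 ml test tube by rotating on an orbital shaker for 2 h at 30 rpm. Once the solvent evaporated, 5-10 adult Ctenocephalides felis were added. Tubes were capped with a perforated plastic lid and kept horizontal at room temperature and ambient humidity.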

| SMILES | efficacy (kill in %) [1] | efficacy (kill in %) [2] | efficacy in % ([3]; application rate 100 g/ha) | efficacy (kill in %) [4] | efficacy in % ([5]; application rate 100 g/ha) | efficacy (dead or moribund ticks) [6] | logP [7] | efficacy in % ([8]; application rate 100 g/ha) | efficacy (laying of fertile eggs) [9] | efficacy (laying of fertile eggs) [10] | efficacy (dead or moribund ticks) ([11]; application rate 1 μg/cm^2) | efficacy (dead or moribund ticks) ([11]; application rate 5 μg/cm^2) | efficacy in % ([12]; application rate 100 g/ha) | efficacy (dead or moribund fleas) ([13]; application rate 1 μg/cm^2) | efficacy (dead or moribund fleas) ([13]; application rate 5 μg/cm^2) | efficacy in % ([3]; application rate 500 g/ha) | efficacy in % ([5]; application rate 500 g/ha) | efficacy in % ([12]; application rate 500 g/ha) | efficacy in % ([8]; application rate 500 g/ha) |
| --- | --- | --- | --- | --- | --- | --- | --- | --- | --- | --- | --- | --- | --- | --- | --- | --- | --- | --- | --- |
| Cn1nc(C(F)(F)C(F)(F)F)c(C(F)(F)F)c1-n1cc(-c2ccc(Cl)c(C(=O)NCc3ccccc3)c2)cn1 [Ic-3] | 100% | 100% | 90% | 100% | 100% | 100% and 80% | 4.39 | 100% | 100% |  |  |  |  |  |  |  |  |  |  |
| Cn1nc(C(F)(F)C(F)(F)F)c(C(F)(F)F)c1-n1cc(-c2ccc(Cl)c(C(=O)NCCF)c2)cn1 [Ic-77] | 100% | 100% | 100% | 100% |  |  | 3.67 | 100% | 100% | 100% | 100% | 100% | 100% | 100% | 100% |  |  |  |  |
| Cn1nc(C(F)(F)C(F)(F)F)c(C(F)(F)F)c1-n1cc(-c2ccc(Cl)c(C(=O)NCC3CC3)c2)cn1 [Ic-153] | 100% | 100% |  | 100% |  |  |  |  | 100% | 100% | 80% | 80% |  | 100% | 100% | 100% | 100% | 90% | 100% |
| Cn1nc(C(F)(F)C(F)(F)F)c(C(F)(F)F)c1-n1cc(-c2ccc(Cl)c(C(=O)NCC#N)c2)cn1 [Ic-147] | 100% | 100% |  | 100% |  |  |  |  | 100% | 100% | 80% |  | 90% | 100% | 100% | 100% | 100% | 100% | 100% |
| CNC(=O)C1(N(C)C(=O)c2cc(-c3cnn(-c4c(C(F)(F)F)c(C(F)(F)C(F)(F)F)nn4C)c3)ccc2Cl)CC1 [Ic-97] | 100% | 100% |  | 100% |  |  | 3.58 |  | 100% | 90% |  |  |  | 100% | 100% | 100% | 100% | 100% | 100% |
| Cn1nc(C(F)(F)C(F)(F)F)c(C(F)(F)F)c1-n1cc(-c2ccc([N+](=O)[O-])c(C(=O)NC3(C#N)CC3)c2)cn1 [Ic-65] | 100% | 100% | 100% | 100% | 100% |  | 3.48 | 83% | 100% | 100% |  |  | 90% | 100% | 100% |  |  |  |  |
| Cn1nc(C(F)(F)C(F)(F)F)c(C(F)(F)F)c1-n1cc(-c2ccc(Cl)c(C(=O)N[C@@H]3CCOC3)c2)cn1 [Ic-164] | 100% | 90% |  | 100% |  |  |  |  | 100% | 100% | 100% | 100% |  | 100% | 100% | 100% | 100% | 90% | 100% |
| Cn1nc(C(F)(F)C(F)(F)F)c(C(F)(F)F)c1-n1cc(-c2cccc(C(=O)NC3(C#N)CC3)c2)cn1 [Ic-19] | 100% | 100% | 100% | 100% | 100% | 100% | 3.61 | 100% | 100% |  | 100% | 80% |  | 100% | 100% |  |  |  |  |
| Cn1cc(NC(=O)c2cc(-c3cnn(-c4c(C(F)(F)F)c(C(F)(F)C(F)(F)F)nn4C)c3)ccc2Cl)cn1 [Ic-166] | 100% | 100% |  | 100% |  |  |  |  | 100% | 100% | 100% | 100% |  | 100% | 100% | 100% | 100% | 90% | 100% |
